{"source": "patent US20240148821A1", "about": "“PHARMACEUTICAL USE OF CYCLIC PEPTIDE COMPOUND” (CHUGAI SEIYAKU KABUSHIKI KAISHA, priority 2021, published 2024)", "note": "Bridge positions count the residues as written; N and C are the ends. Square brackets hold non-standard residues; d marks the D form. Peptide text beside a SMILES is read from it. * marks the point of attachment. hPhe(3-Cl-4-CF3) = N[C@@H](CCc1ccc(C(F)(F)F)c(Cl)c1)C(=O)O; hPhe(3-F,4-CF3) = N[C@@H](CCc1ccc(C(F)(F)F)c(F)c1)C(=O)O; hPhe(4-CF3) = N[C@@H](CCc1ccc(C(F)(F)F)cc1)C(=O)O; NMePhe(3-Me) = CN[C@@H](Cc1cccc(C)c1)C(=O)O; NMeGly(cPent) = CN[C@H](C(=O)O)C1CCCC1; NMeCha = CN[C@@H](CC1CCCCC1)C(=O)O; NMeD = CN[C@@H](CC(=O)O)C(=O)O; NMeL = CN[C@@H](CC(C)C)C(=O)O; Chg = N[C@H](C(=O)O)C1CCCCC1; NMeV = CN[C@H](C(=O)O)C(C)C; d(β3hA) = C[C@@H](N)CC(=O)O; NMeS = CN[C@@H](CO)C(=O)O; NMeA = CN[C@@H](C)C(=O)O; Piperidide = C1CCN(*)CC1; Pra = C#CC[C@H](N)C(=O)O; dNMeA = CN[C@H](C)C(=O)O; Ac5c = NC1(C(=O)O)CCCC1; Aze = O=C(O)[C@@H]1CCN1; CH2CMe2OH = CC(C)(O)C*; Aib = CC(C)(N)C(=O)O; Isopentyl = CC(C)CC*; NEtG = CCNCC(=O)O; Sar = CNCC(=O)O"}
{"system": "Human pancreatic cancer cell line AsPC-1 (G12D mutation Kras)", "experiment": "AsPC-1 cell growth inhibition (AsPC-1 CGI)", "format": "cell-based", "settings": "read-out: AsPC-1 cell growth inhibition, 50% growth inhibitory concentration (IC50 value); 96 hours, CellTiter-Glo, values classified in ranges", "units": {"IC50": "nM"}, "method": "Test compounds were serially dilated with dimethyl sulfoxide, and 200 nL was then dispensed to a U-bottom 96-well plate using Labcyte Echo. […] The cell suspension was dispensed to a. plate containing a test compound at 100 μL per well and incubated at 37° C. in a 5% carbon dioxide gas incubator. 96 hours later, 80 μL of CellTiter-Glo (Promega) was added to each well and fluorescence was measured."}
{"compound": "CC(C)C[C@H]1C(=O)N[C@@H](C2CCCCC2)C(=O)N(C)CC(=O)N(C)CC(=O)N(C)[C@@H](CC2CCCCC2)C(=O)N(C)CC(=O)N[C@@H](CCc2ccc(C(F)(F)F)c(F)c2)C(=O)N2CCC[C@H]2C(=O)NC2(CCCC2)C(=O)N(C)[C@@H](CC(C)C)C(=O)N[C@H](C)CC(=O)N1C", "note": "[Compound 1527] (cyclo([Ac5c][NMeL][d(β3hA)][NMeL][Chg][Sar][Sar][NMeCha][Sar][hPhe(3-F,4-CF3)]P))", "IC50": "> 500"}
{"compound": "CC[C@H](C)[C@@H]1NC(=O)[C@H](CC(C)C)N(C)C(=O)C[C@@H](C(=O)N2CCCCC2)N(C)C(=O)[C@H](CC(C)C)N(C)C(=O)C(C)(C)NC(=O)[C@H](COCC(C)(C)O)N(C)C(=O)[C@H](CCc2ccc(C(F)(F)F)cc2)NC(=O)CN(C)C(=O)[C@H](COCCC(C)C)N(C)C(=O)CN(C)C(=O)CN(CC)C1=O", "note": "[Compound 1528] ([NMeL]I[NEtG][Sar][NMeS](Isopentyl)[Sar][hPhe(4-CF3)][NMeS](CH2CMe2OH)[Aib][NMeL][NMeD]-Piperidide; lactam N-11)", "IC50": "> 500"}
{"compound": "CC[C@H](C)[C@@H]1NC(=O)[C@H](CC(C)C)N(C)C(=O)C[C@@H](C(=O)N2CCCCC2)N(C)C(=O)[C@H](CC(C)C)N(C)C(=O)C(C)(C)NC(=O)[C@H](COCC(C)(C)O)N(C)C(=O)[C@H](CCc2ccc(C(F)(F)F)c(F)c2)NC(=O)CN(C)C(=O)[C@H](COCCC(C)C)N(C)C(=O)CN(C)C(=O)CN(C)C1=O", "note": "[Compound 1532] ([NMeL]I[Sar][Sar][NMeS](Isopentyl)[Sar][hPhe(3-F,4-CF3)][NMeS](CH2CMe2OH)[Aib][NMeL][NMeD]-Piperidide; lactam N-11)", "IC50": "> 500"}
{"compound": "C#CC[C@@H]1NC(=O)[C@H](CC(C)C)N(C)C(=O)C[C@@H](C)NC(=O)[C@H](CC(C)C)N(C)C(=O)C2(CCCC2)NC(=O)[C@@H]2CCCN2C(=O)[C@H](CCc2ccc(C(F)(F)F)c(F)c2)NC(=O)CN(C)C(=O)[C@H](CC2CCCCC2)N(C)C(=O)CN(C)C(=O)CN(C)C1=O", "note": "[Compound 1533] (cyclo([Ac5c][NMeL][d(β3hA)][NMeL][Pra][Sar][Sar][NMeCha][Sar][hPhe(3-F,4-CF3)]P))", "IC50": "> 500"}
{"compound": "CC[C@H](C)[C@@H]1NC(=O)[C@H](CC(C)C)N(C)C(=O)C[C@@H](C)NC(=O)[C@H](C(C)C)N(C)C(=O)C2(CCCC2)NC(=O)[C@@H]2CCCN2C(=O)[C@H](CCc2ccc(C(F)(F)F)c(F)c2)NC(=O)CN(C)C(=O)[C@H](CC2CCCCC2)N(C)C(=O)CN(C)C(=O)CN(C)C1=O", "note": "[Compound 1534] (cyclo([Ac5c][NMeV][d(β3hA)][NMeL]I[Sar][Sar][NMeCha][Sar][hPhe(3-F,4-CF3)]P))", "IC50": "> 500"}
{"compound": "CC[C@H](C)[C@@H]1NC(=O)[C@H](C)N(C)C(=O)C[C@@H](C)NC(=O)[C@H](C2CCCC2)N(C)C(=O)C2(CCCC2)NC(=O)[C@@H]2CCCN2C(=O)[C@H](CCc2ccc(C(F)(F)F)c(Cl)c2)NC(=O)[C@@H](C)N(C)C(=O)[C@H](CC2CCCCC2)N(C)C(=O)CN(C)C(=O)CN(C)C1=O", "note": "[Compound 1535] (cyclo([Ac5c][NMeGly(cPent)][d(β3hA)][NMeA]I[Sar][Sar][NMeCha][dNMeA][hPhe(3-Cl-4-CF3)]P))", "IC50": "> 500"}
{"compound": "CC[C@H](C)[C@@H]1NC(=O)[C@H](CC(C)C)N(C)C(=O)C[C@@H](C(=O)N2CCCCC2)N(C)C(=O)[C@H](CC(C)C)N(C)C(=O)C(C)(C)NC(=O)[C@H](COCC(C)(C)O)N(C)C(=O)[C@H](CCc2ccc(C(F)(F)F)c(Cl)c2)NC(=O)CN(C)C(=O)[C@H](COCCC(C)C)N(C)C(=O)CN(C)C(=O)CN(C)C1=O", "note": "[Compound 1541] ([NMeL]I[Sar][Sar][NMeS](Isopentyl)[Sar][hPhe(3-Cl-4-CF3)][NMeS](CH2CMe2OH)[Aib][NMeL][NMeD]-Piperidide; lactam N-11)", "IC50": "> 500"}
{"compound": "CC[C@H](C)[C@@H]1NC(=O)[C@H](CC(C)C)N(C)C(=O)C[C@@H](C)NC(=O)[C@H](CC(C)C)N(C)C(=O)C2(CCCC2)NC(=O)[C@@H]2CCN2C(=O)[C@H](CCc2ccc(C(F)(F)F)c(F)c2)NC(=O)CN(C)C(=O)[C@H](CC2CCCCC2)N(C)C(=O)CN(C)C(=O)CN(C)C1=O", "note": "[Compound 1545] (cyclo([Ac5c][NMeL][d(β3hA)][NMeL]I[Sar][Sar][NMeCha][Sar][hPhe(3-F,4-CF3)][Aze]))", "IC50": "> 500"}
{"compound": "CC[C@H](C)[C@@H]1NC(=O)[C@H](CC(C)C)N(C)C(=O)C[C@@H](C)NC(=O)[C@H](CC(C)C)N(C)C(=O)C(C)(C)NC(=O)[C@H](COCC(C)(C)O)N(C)C(=O)[C@H](CCc2ccc(C(F)(F)F)c(Cl)c2)NC(=O)CN(C)C(=O)[C@H](COCCC(C)C)N(C)C(=O)CN(C)C(=O)CN(C)C1=O", "note": "[Compound 1546] (cyclo([Aib][NMeL][d(β3hA)][NMeL]I[Sar][Sar][NMeS](Isopentyl)[Sar][hPhe(3-Cl-4-CF3)][NMeS](CH2CMe2OH)))", "IC50": "> 500"}
{"compound": "CC[C@H](C)[C@@H]1NC(=O)[C@H](CC(C)C)N(C)C(=O)C[C@@H](C)NC(=O)[C@H](C(C)C)N(C)C(=O)C2(CCCC2)NC(=O)[C@@H]2CCCN2C(=O)[C@H](CCc2ccc(C(F)(F)F)c(Cl)c2)NC(=O)CN(C)C(=O)[C@H](Cc2cccc(C)c2)N(C)C(=O)CN(C)C(=O)CN(C)C1=O", "note": "[Compound 1547] (cyclo([Ac5c][NMeV][d(β3hA)][NMeL]I[Sar][Sar][NMePhe(3-Me)][Sar][hPhe(3-Cl-4-CF3)]P))", "IC50": "> 500"}
